Measurements: paper PMC5335563, “Proline dehydrogenase from Thermus thermophilus does not discriminate between FAD and FMN as cofactor” (Scientific Reports, 2017)
Blank lines part the entries; values can stand above or below the compound they belong to.

What was measured:
[1] = target: T1, MBP-TtProDH EE (apo-EE, reconstituted apo-EE) (Thermus thermophilus, UniProt Q72IB8, F10E/L12E, form not given); experiment: flavin fluorescence quenching titration; details: very weak binding, data not shown; 200 nM riboflavin; 50 mM sodium phosphate, pH 7.4
T1 construct: gene TT_C1214; N-terminal MBP fusion kept; variant EE (F10E/L12E); E. coli BSV11 riboflavin auxotroph, apo form

[2] = target: T1, MBP-TtProDH EE (apo-EE, reconstituted apo-EE); experiment: flavin fluorescence quenching titration; assay type: binding; details: 50 mM sodium phosphate, pH 7.4

T1 sequence (Q72IB8 whole entry F10E/L12E, form open, the tested form may be a part): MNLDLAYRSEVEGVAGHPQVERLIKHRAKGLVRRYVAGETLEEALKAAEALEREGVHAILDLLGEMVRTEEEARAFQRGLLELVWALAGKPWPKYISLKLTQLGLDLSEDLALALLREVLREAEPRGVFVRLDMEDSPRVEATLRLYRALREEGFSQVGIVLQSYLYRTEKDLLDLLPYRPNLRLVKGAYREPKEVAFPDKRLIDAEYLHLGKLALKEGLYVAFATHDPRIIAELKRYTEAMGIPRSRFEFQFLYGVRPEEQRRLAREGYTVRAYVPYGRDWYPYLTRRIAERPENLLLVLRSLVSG

SMILES: Cc1cc2nc3c(=O)[nH]c(=O)nc-3n(C[C@H](O)[C@H](O)[C@H](O)CO)c2cc1C [riboflavin]
flavin fluorescence quenching titration [1]: riboflavin shows a very weak binding to the apoenzyme (data not shown)

Kd ([2]; apoenzyme titrated into 200 nM FAD): 18 ± 0.5 nM
SMILES: Cc1cc2nc3c(=O)[nH]c(=O)nc-3n(C[C@H](O)[C@H](O)[C@H](O)COP(=O)(O)OP(=O)(O)OC[C@H]3O[C@@H](n4cnc5c(N)ncnc54)[C@H](O)[C@@H]3O)c2cc1C [FAD]

Kd ([2]; apoenzyme titrated into 200 nM FMN): 19.5 ± 0.8 nM
SMILES: Cc1cc2nc3c(=O)[nH]c(=O)nc-3n(C[C@H](O)[C@H](O)[C@H](O)COP(=O)(O)O)c2cc1C [FMN]
